For assay [1], the system named is 3T3 cells. The experiment in a line: MTT cell proliferation assay, 3T3. Type of assay: cell-based, mouse. The settings on record: read-out: MTT Assay IC50, 3T3. The protocol: (§1) The MTT cell proliferation assay was used to study the cytotoxic properties of the compounds. The assay was performed according to the method described by Roche Molecular Biochemicals, with minor modifications. The assay is based on the cleavage of the tetrazolium salt, MTT, in the presence of an electron-coupling reagent. The water-insoluble formazan salt produced must be solubilized in an additional step. Cells grown in a 96-well tissue culture plate were incubated with the MTT solution for approximately 4 hours. After this incubation period, a water-insoluble formazan dye formed. After solubilization, the formazan dye was quantitated using a scanning multi-well spectrophotometer (ELISA reader). […] The cells were seeded at 5,000-10,000 cells in each well of 96-well plate in 100 μL of fresh culture medium and were allowed to attach overnight. The stock solutions of the compounds were diluted in 100 μL cell culture medium to obtain eight concentrations of each test compound, ranging from 1 nM to 30 μM. […] All optical densities were measured at 490 nm using a Vmax Kinetic Microplate Reader (Molecular Devices). In most cases, the assay was performed in duplicate and the results were presented as a mean percent inhibition to the negative control±SE. The following formula was used to calculate the percent of inhibition: Inhibition (%)=(1-(ODo/OD)) ×100.
(§2) The compounds were tested against MS751, Z138 and 3T3 cells. The MS751 cell line is derived from a metastasis to lymph node of human cervix from a patient diagnosed with squameous cell carcinoma of the cervix. The Z138 cell line is a mature B-cell acute lymphoblastic leukemia cell line derived from a patient with chronic lumphocytic leukemia. 3T3 cells are standard fibroblast cells; they were originally isolated from Swiss mouse embryo tissue.

Assay [2] has as its system MS751 cells. The experiment in a line: MTT cell proliferation assay, MS751. The settings on record: read-out: MTT Assay IC50, MS751. It counts as cell-based, human. The protocol:
as §1, §2

In assay [3] the test system is Z138 cells. The experiment in a line: MTT cell proliferation assay, Z138. Type of assay: cell-based. The note with it: read-out: MTT Assay IC50, Z138. The protocol:
as §1, §2

Where [4] appears, read: Mus musculus, NIH3T3, 3T3 cells, approximately 64-72 hours incubation.
The mark [5] stands for this setting: Homo sapiens, MS751, MS751 cells, approximately 64-72 hours incubation.
Where [6] appears, read: Homo sapiens, Z-138, Z138 cells, approximately 64-72 hours incubation.
[7] abbreviates: 3T3 cells, approximately 64-72 hours incubation.
Setting [8] is: MS751 cells, approximately 64-72 hours incubation.
Setting [9] is: Z138 cells, approximately 64-72 hours incubation.
Where [10] appears, read: Mus musculus, NIH3T3, 3T3 cells, eight concentrations 1 nM to 30 μM, incubation approximately 64-72 hours.
Where [11] appears, read: Homo sapiens, MS751, MS751 cells, eight concentrations 1 nM to 30 μM, incubation approximately 64-72 hours.
Setting [12] is: Homo sapiens, Z-138, Z138 cells, eight concentrations 1 nM to 30 μM, incubation approximately 64-72 hours.

Molecules are shown by their SMILES. Like-named read-outs stand apart in the source and are kept apart here. Where only a bound is given, the exact number is not on record here.

As for `CC(=O)c1ccc(-c2cc(Cl)c3c(c2)CC(CNC(=O)/C=C/c2ccc(N)nc2)O3)s1` (single isomer, unassigned) [Compound 308, (E)-N-((5-(5-acetylthiophen-2-yl)-7-chloro-2,3-dihydrobenzofuran-2-yl)methyl)-3-(6-aminopyridin-3-yl)acrylamide], the results for the IC50 in assay [1] (setting [4]), in assay [2] (setting [5]) and in assay [3] (setting [6]) were 5 to 30 µM, 0.1 to 5 µM and 0.1 to 5 µM, respectively.

Consider `CC(=O)c1ccc(-c2cc(Cl)c3c(c2)CC(CNC(=O)/C=C/c2ccc(N)nc2)O3)s1` (single isomer, unassigned) [Compound 309, (E)-N-((5-(5-acetylthiophen-2-yl)-7-chloro-2,3-dihydrobenzofuran-2-yl)methyl)-3-(6-aminopyridin-3-yl)acrylamide], for which the values for the IC50 in assay [1] (setting [7]), in assay [2] (setting [8]) and in assay [3] (setting [9]) were 5 to 30 µM, 0.1 to 5 µM and less than 0.1 µM, respectively.

For `CC(=O)c1ccc(-c2cc(Cl)c3c(c2)CC(CNC(=O)/C=C\c2cccnc2)O3)s1` (single isomer, unassigned) [Compound 312, (Z)-N-((5-(5-acetylthiophen-2-yl)-7-chloro-2,3-dihydrobenzofuran-2-yl)methyl)-3-(pyridin-3-yl)acrylamide], the half-maximal inhibitory concentration (IC50) in assay [1] (setting [7]) is 5 to 30 µM; in assay [2] (setting [8]), 5 to 30 µM; in assay [3] (setting [6]), 0.1 to 5 µM.

For `CC(=O)c1ccc(-c2cc(Cl)c3c(c2)CC(CNC(=O)/C=C\c2cccnc2)O3)s1` (single isomer, unassigned) [Compound 313, (Z)-N-((5-(5-acetylthiophen-2-yl)-7-chloro-2,3-dihydrobenzofuran-2-yl)methyl)-3-(pyridin-3-yl)acrylamide], the concentration for half-maximal inhibition (IC50) in assay [1] (setting [7]) was greater than 30 µM; in assay [2] (setting [8]), 0.1 to 5 µM; in assay [3] (setting [9]), 0.1 to 5 µM.

`CC(=O)c1ccc(-c2cc(Cl)c3c(c2)CC(CNC(=O)/C=C/c2cccnn2)O3)s1` (single isomer, unassigned) [Compound 317, (E)-N-((5-(5-acetylthiophen-2-yl)-7-chloro-2,3-dihydrobenzofuran-2-yl)methyl)-3-(pyridazin-3-yl)acrylamide]: the IC50 was greater than 30 µM in assay [1] (setting [4]), 0.1 to 5 µM in assay [2] (setting [5]) and 0.1 to 5 µM in assay [3] (setting [6]).

On to `CC(=O)c1ccc(-c2cc(Cl)c3c(c2)CC(CNC(=O)/C=C/c2cccnn2)O3)s1` (single isomer, unassigned) [Compound 318, (E)-N-((5-(5-acetylthiophen-2-yl)-7-chloro-2,3-dihydrobenzofuran-2-yl)methyl)-3-(pyridazin-3-yl)acrylamide], for which the IC50 is greater than 30 µM in assay [1] (setting [7]), 0.1 to 5 µM in assay [2] (setting [8]) and 0.1 to 5 µM in assay [3] (setting [9]).

Consider `Cc1ccc(-c2cc(Cl)c3c(c2)CC(CNC(=O)/C=C/c2cccnc2)O3)cc1` (stereo not drawn) [Compound 15, (E)-N-((7-chloro-5-p-tolyl-2,3-dihydrobenzofuran-2-yl)methyl)-3-(pyridin-3-yl) acrylamide], for which the IC50 lay in the range of 5 to 30 µM in assay [1] (setting [10]), 0.1 to 5 µM in assay [2] (setting [11]) and 0.1 to 5 µM in assay [3] (setting [12]).

Regarding `O=C(/C=C/c1cccnc1)NCC1Cc2cc(-c3ccccc3F)cc(Cl)c2O1` (stereo not drawn) [Compound 18, (E)-N-((7-chloro-5-(2-fluorophenyl)-2,3-dihydrobenzofuran-2-yl)methyl)-3-(pyridin-3-yl)acrylamide], the 50% inhibitory concentration (IC50) in assay [1] (setting [10]) was 5 to 30 µM; in assay [2] (setting [11]) it was 0.1 to 5 µM; in assay [3] (setting [12]), 0.1 to 5 µM.

Take `O=C(/C=C/c1cccnc1)NCC1Cc2cc(-c3cc(F)c(F)c(F)c3)cc(Cl)c2O1` (stereo not drawn) [Compound 21, (E)-N-((7-chloro-5-(3,4,5-trifluorophenyl)-2,3-dihydrobenzofuran-2-yl)methyl)-3-(pyridin-3-yl)acrylamide]: the IC50 in assay [1] (setting [10]) is greater than 30 µM; in assay [2] (setting [11]) it was 0.1 to 5 µM; in assay [3] (setting [12]) it was 0.1 to 5 µM.

Take `CC(=O)c1ccc(-c2cc(Cl)c3c(c2)CC(CNC(=O)/C=C/c2ccncc2)O3)s1` (stereo not drawn) [Compound 24, (E)-N-((5-(5-acetylthiophen-2-yl)-7-chloro-2,3-dihydrobenzofuran-2-yl)methyl)-3-(pyridin-4-yl)acrylamide]: the half-inhibitory concentration (IC50) in assay [1] (setting [10]), in assay [2] (setting [11]) and in assay [3] (setting [12]) was greater than 30 µM each time.

On to `CC(=O)c1ccc(-c2cc(Cl)c3c(c2)CC(CN)O3)s1` (stereo not drawn) [Compound 26], for which the IC50 in assay [1] (setting [10]), in assay [2] (setting [11]) and in assay [3] (setting [12]) was 5 to 30 µM in each case.

Regarding `CC(=O)c1ccc(-c2cc(Cl)c3c(c2)CC(CNC(=O)/C=C/c2cccnc2)O3)s1` (stereo not drawn) [Compound 27, (E)-N-((5-(5-acetylthiophen-2-yl)-7-chloro-2,3-dihydrobenzofuran-2-yl)methyl)-3-(pyridin-3-yl)acrylamide], the 50% inhibitory concentration (IC50) in assay [1] (setting [10]) is 0.1 to 5 µM; in assay [2] (setting [11]), less than 0.1 µM; in assay [3] (setting [12]) it was less than 0.1 µM.

As to `CC(=O)c1ccc(-c2cc(Cl)c3c(c2)CC(CNC(=O)/C=C/c2ccc[n+]([O-])c2)O3)s1` (stereo not drawn) [Compound 28, (E)-N-((5-(5-acetylthiophen-2-yl)-7-chloro-2,3-dihydrobenzofuran-2-yl)methyl)-3-(pyridine-1-oxide-3-yl)acrylamide], the half-maximal inhibitory concentration (IC50) in assay [1] (setting [10]), in assay [2] (setting [11]) and in assay [3] (setting [12]) was greater than 30 µM each time.

For the molecule `O=C(/C=C/c1cccnc1)NCC1Cc2cc(-c3ccc(C(=O)N4CCOCC4)cc3)cc(Cl)c2O1` (stereo not drawn) [Compound 29], the IC50 in assay [1] (setting [10]) is 0.1 to 5 µM; in assay [2] (setting [11]), less than 0.1 µM; in assay [3] (setting [12]), less than 0.1 µM.

Take `O=C(/C=C/c1cccnc1)NCC1Cc2cc(-c3cc(Cl)cc(Cl)c3)cc(Cl)c2O1` (stereo not drawn) [Compound 32, (E)-N-((7-chloro-5-(3,5-dichlorophenyl)-2,3-dihydrobenzofuran-2-yl)methyl)-3-(pyridin-3-yl)acrylamide]: the IC50 is greater than 30 µM in assay [1] (setting [10]), 0.1 to 5 µM in assay [2] (setting [11]) and 0.1 to 5 µM in assay [3] (setting [12]).

Regarding `Cc1noc(C)c1-c1cc(Cl)c2c(c1)CC(CNC(=O)/C=C/c1cccnc1)O2` (stereo not drawn) [Compound 35, (E)-N-((7-chloro-5-(3,5-dimethylisoxazol-4-yl)-2,3-dihydrobenzofuran-2-yl)methyl)-3-(pyridin-3-yl)acrylamide], the values for the IC50 in assay [1] (setting [10]), in assay [2] (setting [11]) and in assay [3] (setting [12]) were 0.1 to 5 µM, 0.1 to 5 µM and less than 0.1 µM, respectively.

Take `CC(=O)c1ccc(-c2cc(Cl)c3c(c2)CC(CNC(=O)/C=C/c2ccccc2)O3)s1` (stereo not drawn) [Compound 38, N-((5-(5-acetylthiophen-2-yl)-7-chloro-2,3-dihydrobenzofuran-2-yl)methyl)cinnamamide]: the IC50 in assay [1] (setting [10]), in assay [2] (setting [11]) and in assay [3] (setting [12]) was greater than 30 µM each time.

On to `COc1cccc(-c2cc(Cl)c3c(c2)CC(CNC(=O)/C=C/c2cccnc2)O3)c1F` (stereo not drawn) [Compound 39, (E)-N-((7-chloro-5-(2-fluoro-3-methoxyphenyl)-2,3-dihydrobenzofuran-2-yl)methyl)-3-(pyridin-3-yl)acrylamide], for which the IC50 in assay [1] (setting [10]), in assay [2] (setting [11]) and in assay [3] (setting [12]) was 0.1 to 5 µM in each case.

As to `O=C(/C=C/c1cccnc1)NCC1Cc2cc(-c3ccco3)cc(Cl)c2O1` (stereo not drawn) [Compound 42, (E)-N-((7-chloro-5-(furan-2-yl)-2,3-dihydrobenzofuran-2-yl)methyl)-3-(pyridin-3-yl)acrylamide], the IC50 in assay [1] (setting [10]) lay within 5 to 30 µM; in assay [2] (setting [11]) it was 0.1 to 5 µM; in assay [3] (setting [12]), 0.1 to 5 µM.

For the molecule `CC(=O)c1ccc(-c2cc(Cl)c3c(c2)CC(CNC(=O)/C=C/c2ccc(Cl)nc2)O3)s1` (stereo not drawn) [Compound 45, (E)-N-((5-(5-acetylthiophen-2-yl)-7-chloro-2,3-dihydrobenzofuran-2-yl)methyl)-3-(6-chloropyridin-3-yl)acrylamide], the IC50 in assay [1] (setting [10]), in assay [2] (setting [11]) and in assay [3] (setting [12]) was greater than 30 µM each time.

Turning to `O=C(/C=C/c1cccnc1)NCC1Cc2cc(-c3cc(C(F)(F)F)cc(C(F)(F)F)c3)cc(Cl)c2O1` (stereo not drawn) [Compound 49, (E)-N-((5-(3,5-bis(trifluoromethyl)phenyl)-7-chloro-2,3-dihydrobenzofuran-2-yl)methyl)-3-(pyridin-3-yl)acrylamide], the 50% inhibitory concentration (IC50) in assay [1] (setting [10]), in assay [2] (setting [11]) and in assay [3] (setting [12]) was 0.1 to 5 µM each time.

As for `CCOC(=O)c1cccc(-c2cc(Cl)c3c(c2)CC(CNC(=O)/C=C/c2cccnc2)O3)c1` (stereo not drawn) [Compound 52, (E)-ethyl 3-(7-chloro-2-((3-(pyridin-3-yl)acrylamido)methyl)-2,3-dihydrobenzofuran-5-yl)benzoate], the half-maximal inhibitory concentration (IC50) in assay [1] (setting [10]), in assay [2] (setting [11]) and in assay [3] (setting [12]) was 0.1 to 5 µM throughout.

(Values after patent US9938258B2 (Karyopharm Therapeutics Inc., priority 2012, dated 2018).)
